Ends that are not written are not given here.
Assays:
[1] = biological target: MC3R + GPR139 (Homo sapiens, UniProt Q6DWJ6); assay: Calcium mobilization, HEK-293 transiently expressing MC3R + GPR139; assay type: cell-based; settings: MC3R + GPR139; 10 μM JNJ-3792165 or 1 μM HS-024
Procedure: Intracellular calcium mobilization was measured with the BD calcium kit (BD Bioscience, San Jose, CA, United States). The recombinant cell lines expressing MC3R, MC4R, and MC5R with and without GPR139 or Gα16 were seeded in culture media at a density of 50,000 cells/well into 96-well black/clear-bottom poly-D-lysine treated tissue culture plates. Cells were incubated overnight at 37°C and 5% CO2. Next day, culture media was removed and cells were washed with HBSS prior to dye-loading for 1 h at 37°C and 5% CO2. Agonist stimulation and intracellular calcium measurements were done on the FLIPR Tetra (Molecular Devices, Sunnyvale, CA, United States). […] EC50s were calculated by fitting a three-parameter logistic curve using least-squares non-linear regression analysis as implemented in Graphpad Prism 7.0.

[2] = biological target: MC5R + GPR139 (Homo sapiens, UniProt Q6DWJ6); assay: Calcium mobilization, HEK-293 transiently expressing MC5R + GPR139; assay type: cell-based; settings: MC5R + GPR139; 10 μM JNJ-3792165 or 1 μM HS-024
Procedure: (§1) Human MC3R (NM_019888), MC4R (NM_005912), and MC5R (NM_005913) were transiently expressed in HEK-293 cells with and without human GPR139 (KR081941) or the chimeric G-protein Gα16. All genes were cloned into pCIneo (Promega, Madison, WI, United States, #E1841). HEK-293 cells were cultured in DMEM/F12 (Gibco, Grand Island, NY, United States, #11039-021), 10% FBS (Hyclone, Logan, UT, United States, # SH300700.03), 50 units/ml penicillin and 50 μg/ml streptomycin (Mediatech, Manassas, VA, United States, #30-001-CI). Cells were seeded at 4 × 10^6 cells in 10 cm dishes and allowed to grow overnight at 37°C, 5% CO2. On the day of transfection, culture media was replaced with F12-K (Mediatech, Manassas, VA, United States, #10-025-CV), 10% FBS, 20 mM HEPES (Hyclone, Logan, UT, United States, #SH30237.01) and transfected with 15 μg DNA (10 μg MCR:5 μg pCIneo, 10 μg MCR:5 μg Gα16 or 7.5 μg MCR:7.5 μg GPR139) using FuGene HD (Promega, Madison, WI, United States, #E2311) according to manufacturer’s instructions. MC3R, MC4R, and MC5R were also transiently expressed in the following GPR139 stably expressing cell lines using the FuGENE HD method: HEK-293 GPR139 clone#33, CHO-TREx GPR139 clone#18, and SK-N-MC/CRE TREx GPR139 clone#35. Stable cell lines were established according to method previously described ([Liu et al., 2015]).
(§2) Intracellular calcium mobilization was measured with the BD calcium kit (BD Bioscience, San Jose, CA, United States). The recombinant cell lines expressing MC3R, MC4R, and MC5R with and without GPR139 or Gα16 were seeded in culture media at a density of 50,000 cells/well into 96-well black/clear-bottom poly-D-lysine treated tissue culture plates. Cells were incubated overnight at 37°C and 5% CO2. Next day, culture media was removed and cells were washed with HBSS prior to dye-loading for 1 h at 37°C and 5% CO2. Agonist stimulation and intracellular calcium measurements were done on the FLIPR Tetra (Molecular Devices, Sunnyvale, CA, United States). For receptor inhibition analysis, antagonists (1 μM HS-024 or 10 μM JNJ-3792165) were added off-line 15 min prior to agonist addition on the Tetra. For G-protein inhibitor experiments, cells were treated with 1 μM YM-254890 for 5 min prior to agonist additions on the Tetra. […] Responses in Figure 6 were normalized to its respective agonist response without antagonist. EC50s were calculated by fitting a three-parameter logistic curve using least-squares non-linear regression analysis as implemented in Graphpad Prism 7.0.

[3] = biological target: T1, GPR139 (Homo sapiens, UniProt Q6DWJ6); assay: [3H]JNJ-63533054 radioligand binding assay, membranes of CHO-TREx cells stably expressing human GPR139; design: expressed in transfected cells; host or cells: CHO-TREx GPR139 clone#18; settings: 10 nM radioligand; CHO-TREx GPR139 membranes; read-out: pKi, displacement of [3H]JNJ-63533054 (converted)
T1 sequence (Q6DWJ6 1-353): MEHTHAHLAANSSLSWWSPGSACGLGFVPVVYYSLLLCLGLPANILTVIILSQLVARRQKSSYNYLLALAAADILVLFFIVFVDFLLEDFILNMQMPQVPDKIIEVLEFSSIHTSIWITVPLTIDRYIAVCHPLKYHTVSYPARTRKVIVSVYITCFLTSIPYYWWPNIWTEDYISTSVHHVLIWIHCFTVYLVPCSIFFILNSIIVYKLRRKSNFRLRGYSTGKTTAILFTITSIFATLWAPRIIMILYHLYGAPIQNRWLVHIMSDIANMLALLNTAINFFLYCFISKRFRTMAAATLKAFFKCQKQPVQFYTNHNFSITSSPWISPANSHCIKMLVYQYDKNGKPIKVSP
Procedure: Reaction was terminated by filtration through GF/C filterplates pre-treated with PEI (polyethyleneimine) followed by washes with ice-cold TE buffer. Filterplates were dried in a 60°C oven followed by addition of Microscint-0. Bound radioactivity was read on a Topcount scintillation counter. […] Half-maximal inhibitory concentrations (IC50s) of test compounds were calculated by fitting a three-parameter logistic curve using least-squares non-linear regression analysis as implemented in Graphpad Prism 7.0. The Top plateau was fixed at 100 and the Bottom was fixed at 0.

[4] = biological target: T1, GPR139; assay: [35S]-GTPγS binding assay, membranes of CHO-TREx cells stably expressing GPR139; assay type: biochemical; design: expressed in transfected cells; host or cells: CHO-TREx GPR139 clone#18
Procedure: For G-protein inhibitor experiments, CHO-TRex cells stably expressing GPR139 were treated with 100 ng/ml pertussis toxin (Gi/o inhibitor) overnight prior to harvesting cells for membrane preparations. […] Reactions were terminated by rapid filtration through GF/C filterplates (Perkin-Elmer, Waltham, MA, United States) on a Cell Harvester (Perkin-Elmer, Waltham, MA, United States). Filterplates were washed three times with ice-cold wash buffer (50 mM Tris, 5 mM MgCl2) and Microscint-40 was added to each well. Bound radioactivity was measured on a Topcount scintillation counter (Perkin-Elmer, Waltham, MA, United States). […] EC50s were calculated by modeling the response associated with the logarithm of concentration as a three-parameter logistic curve with the Bottom plateau parameter fixed at 0. The fit was obtained using least-squares non-linear regression as implemented in GraphPad Prism 7.0.

[5] = biological target: MC4R + GPR139 (Homo sapiens, UniProt Q6DWJ6); assay: Calcium mobilization, HEK-293 transiently expressing MC4R + GPR139; assay type: cell-based; settings: MC4R + GPR139; 10 μM JNJ-3792165 or 1 μM HS-024
Procedure: as §1, §2

[6] = tested on: over 50 other neurotransmitter and neuropeptide receptors including the MCRs; assay: Selectivity panel of over 50 other neurotransmitter and neuropeptide receptors; assay type: binding; settings: at 1 μM
[7] = biological target: T1, GPR139; assay: Calcium mobilization assay, antagonism at GPR139 (cell line not stated); assay type: cell-based; design: expressed in transfected cells; host or cells: CHO-TREx GPR139 clone#18; settings: read-out: pKb, antagonist in calcium mobilization assay (converted)
Procedure: as §2

[8] = biological target: T2, MC4R (Homo sapiens, UniProt P32245); assay: Calcium mobilization, HEK-293 transiently expressing MC4R; assay type: cell-based; settings: HEK293; HEK-293 transient MC4R alone; read-out: Emax, calcium release in MC4R expressing cells
T2 construct: expressed in transfected cells; host or cells: HEK-293, pCIneo, transient (FuGene HD)
Procedure: as §1, §2

[9] = biological target: T1, GPR139; assay: Calcium mobilization, HEK-293 cells stably expressing human GPR139; assay type: cell-based; design: expressed in transfected cells; settings: HEK-293 stable GPR139
Procedure: as §1, §2

[10] = biological target: T1, GPR139; design: expressed in transfected cells; host or cells: CHO-TREx GPR139 clone#18; method as in Nøhr et al. (2017b); settings: ref Nøhr et al. (2017b), cited from earlier work; for Activation of GPR139, potency range in words: CHO cells stably expressing human GPR139
[11] = biological target: MC4R + Gα16 (Homo sapiens, UniProt P32245); assay: Calcium mobilization, CHO-K1 cells transiently expressing MC4R + Gα16; assay type: cell-based; design: expressed in transfected cells; host or cells: CHO-K1, transient; settings: data not shown
[12] = biological target: T1, GPR139; assay: Calcium mobilization, SK-N-MC/CRE cells stably expressing human GPR139; assay type: cell-based; design: expressed in transfected cells; host or cells: CHO-TREx GPR139 clone#18; settings: SK-N-MC/CRE stable GPR139
Procedure: as §1, §2

[13] = biological target: T1, GPR139; assay: Calcium mobilization, CHO-TREx cells stably expressing human GPR139; assay type: cell-based; design: expressed in transfected cells; host or cells: CHO-TREx GPR139 clone#18; settings: CHO-TREx stable GPR139
[14] = biological target: T1, GPR139; design: method as in Liu et al., 2015; settings: ref Liu et al., 2015; cited from earlier work

MC4R + GPR139, sequence (P32245 whole entry partner, one chain of several): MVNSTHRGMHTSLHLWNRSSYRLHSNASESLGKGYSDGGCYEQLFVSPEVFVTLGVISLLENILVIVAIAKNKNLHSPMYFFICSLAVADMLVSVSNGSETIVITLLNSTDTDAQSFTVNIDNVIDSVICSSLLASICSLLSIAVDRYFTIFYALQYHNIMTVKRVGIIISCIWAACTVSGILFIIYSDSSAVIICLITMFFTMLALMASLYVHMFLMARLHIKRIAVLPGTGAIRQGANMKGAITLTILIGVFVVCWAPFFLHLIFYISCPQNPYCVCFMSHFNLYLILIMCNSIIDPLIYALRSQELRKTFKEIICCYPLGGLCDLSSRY
MC5R + GPR139, sequence (P33032 whole entry partner, one chain of several): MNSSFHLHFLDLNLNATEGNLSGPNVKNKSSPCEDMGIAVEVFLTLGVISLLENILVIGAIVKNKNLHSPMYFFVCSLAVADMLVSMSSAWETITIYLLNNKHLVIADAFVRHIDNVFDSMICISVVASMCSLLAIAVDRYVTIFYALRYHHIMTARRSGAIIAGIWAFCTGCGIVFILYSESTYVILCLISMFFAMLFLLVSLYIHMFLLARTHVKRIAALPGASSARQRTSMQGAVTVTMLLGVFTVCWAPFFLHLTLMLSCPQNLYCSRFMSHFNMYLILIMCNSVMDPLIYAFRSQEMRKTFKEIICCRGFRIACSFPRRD
MC3R + GPR139, sequence (P41968 whole entry partner, one chain of several): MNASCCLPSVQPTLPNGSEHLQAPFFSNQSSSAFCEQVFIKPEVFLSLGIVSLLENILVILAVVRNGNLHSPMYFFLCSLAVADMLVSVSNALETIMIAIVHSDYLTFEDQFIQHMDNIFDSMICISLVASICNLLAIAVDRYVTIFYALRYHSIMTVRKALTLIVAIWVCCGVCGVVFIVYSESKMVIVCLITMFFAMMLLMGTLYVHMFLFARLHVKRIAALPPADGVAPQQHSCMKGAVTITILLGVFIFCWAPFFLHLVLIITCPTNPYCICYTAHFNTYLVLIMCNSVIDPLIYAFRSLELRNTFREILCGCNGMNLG
T2 sequence (P32245 whole entry): as the sequence (P32245 whole entry partner, one chain of several) above
MC4R + Gα16, sequence (P32245 whole entry): as the sequence (P32245 whole entry partner, one chain of several) above

Row | Compound | Antagonist effect on ACTH, α-MSH and β-MSH induced calcium response [1] | Antagonist effect on calcium response to GPR139 agonists (JNJ-63533054, TC-09311, L-Trp) [1] | Antagonist effect on ACTH, α-MSH and β-MSH induced calcium response [2] | Antagonist effect on calcium response to GPR139 agonists (JNJ-63533054, TC-09311, L-Trp) [2] | Antagonist effect on ACTH, α-MSH and β-MSH induced calcium response [5] | Antagonist effect on calcium response to GPR139 agonists (JNJ-63533054, TC-09311, L-Trp) [5] | Emax [8] | Calcium mobilization activity, in words [9] | Activation of GPR139, potency range in words [10] | Calcium response in CHO-K1 cells co-expressing MC4R + Gα16 [11] | also measured
1 | Cc1cccc(NC(=O)c2cc(C)n(Cc3c(Cl)cccc3Cl)n2)c1 [JNJ-3792165, 1H-pyrazole-3-carboxamide, 1-[(2,6-dichlorophenyl)methyl]-5-methyl-N-(3-methylphenyl)] | did not block | fully inhibited | did not block | fully inhibited | did not block | fully inhibited |  |  |  |  | Ki [3]: 20 nM; Kb ([4]; read-out: pKb, antagonist in [35S]GTPγS assay (converted)): 39.8 nM; Inhibition at any receptor other than GPR139 (selectivity panel) [6]: less than 50%; Kb [7]: 126 nM
2 | SYSMEHFRWGKPVGKKRRPVKVYPNGAEDESAEAFPLEF [ACTH, adrenocorticotropic hormone] |  |  |  |  |  |  | 27% | did not increase calcium mobilization | sub- to low micromolar range | calcium response | Fold less potent on GPR139 than on MC4R [10]: 100 fold
3 | CSCC[C@H](NC(=O)[C@H](CCCNC(=N)N)NC(=O)[C@H](Cc1ccc(O)cc1)NC(=O)[C@@H]1CCCN1C(=O)CNC(=O)[C@H](CCC(=O)O)NC(=O)[C@H](CC(=O)O)NC(=O)[C@H](CCCCN)NC(=O)[C@H](CCCCN)NC(=O)[C@H](CCC(=O)O)NC(=O)[C@H](C)N)C(=O)N[C@@H](CCC(=O)O)C(=O)N[C@@H](Cc1c[nH]cn1)C(=O)N[C@@H](Cc1ccccc1)C(=O)N[C@@H](CCCNC(=N)N)C(=O)N[C@@H](Cc1c[nH]c2ccccc12)C(=O)NCC(=O)N[C@@H](CO)C(=O)N1CCC[C@H]1C(=O)N1CCC[C@H]1C(=O)N[C@@H](CCCCN)C(=O)N[C@@H](CC(=O)O)C(=O)O [β-MSH, β melanocyte stimulating hormone] |  |  |  |  |  |  | 24% | No activity was detected | sub- to low micromolar range | calcium response | Calcium mobilization activity, in words [12]: No activity was detected; Activation of GPR139 ([35S]-GTPγS incorporation), in words ([4]; up to 30 μM): did not activate GPR139; Calcium mobilization activity, in words [13]: No activity was detected
4 | N[C@@H](Cc1ccccc1)C(=O)O [L-Phe, L-phenylalanine] |  |  |  |  |  |  |  |  |  |  | EC50 [14]: 30000 to 300000 nM
5 | HS-024 | rightward shift of the EC50 | had no effect | fully blocked | reduced the efficacy | reduction in both potency and efficacy | had no effect |  |  |  |  | 

— paper PMC5863515, “Re-evaluation of Adrenocorticotropic Hormone and Melanocyte Stimulating Hormone Activation of GPR139 in Vitro” (Frontiers in Pharmacology, 2018)
